Results on 15 compounds are retold here after ChEMBL document CHEMBL5104183, “Discovery of Highly Potent and Selective Matrix Metalloproteinase-7 Inhibitors by Hybridizing the S1' Subsite Binder with Short Peptides” (J Med Chem, 2022).

The target of series [1] is Matrix metalloproteinase-14 (Homo sapiens, UniProt P50281). Kind of series: Inhibition of human recombinant C-terminal 10-His tagged MMP-14 ( Ala21 to Gly284 residues) using MOCAc-Lys-Pro-Leu-Gly-Leu-A2pr(Dnp)-Ala-Arg-NH2 as fluorogenic substrate preincubated for 15 mins followed by substrate addition by fluorescence based analysis.
The target in a further series is T1, Matrilysin (Homo sapiens, UniProt P09237).
T1 sequence (P09237 whole entry): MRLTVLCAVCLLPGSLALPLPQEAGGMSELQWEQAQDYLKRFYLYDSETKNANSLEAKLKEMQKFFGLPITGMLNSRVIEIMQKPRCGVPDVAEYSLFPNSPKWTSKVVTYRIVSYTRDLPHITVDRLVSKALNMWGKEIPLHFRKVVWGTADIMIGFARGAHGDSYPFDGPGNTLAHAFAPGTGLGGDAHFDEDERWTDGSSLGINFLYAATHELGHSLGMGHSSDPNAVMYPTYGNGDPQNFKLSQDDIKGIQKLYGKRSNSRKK
Kind of series: Inhibition of human recombinant MMP-7 (Leu18 to Lys267 residues) using MOCAc-Pro-Leu-Gly-Leu-A2pr(Dnp)-Ala-Arg-NH2 as fluorogenic substrate preincubated for 15 mins followed by substrate addition by fluorescence based analysis.

For series [2], the target named is Macrophage metalloelastase (Homo sapiens, UniProt P39900). Kind of series: Inhibition of human recombinant MMP-12 (Leu17 to Cys470 residues) using MOCAc-Pro-Leu-Gly-Leu-A2pr(Dnp)-Ala-Arg-NH2 as fluorogenic substrate preincubated for 15 mins followed by substrate addition by fluorescence based analysis.
Chain of Macrophage metalloelastase (P39900 whole entry): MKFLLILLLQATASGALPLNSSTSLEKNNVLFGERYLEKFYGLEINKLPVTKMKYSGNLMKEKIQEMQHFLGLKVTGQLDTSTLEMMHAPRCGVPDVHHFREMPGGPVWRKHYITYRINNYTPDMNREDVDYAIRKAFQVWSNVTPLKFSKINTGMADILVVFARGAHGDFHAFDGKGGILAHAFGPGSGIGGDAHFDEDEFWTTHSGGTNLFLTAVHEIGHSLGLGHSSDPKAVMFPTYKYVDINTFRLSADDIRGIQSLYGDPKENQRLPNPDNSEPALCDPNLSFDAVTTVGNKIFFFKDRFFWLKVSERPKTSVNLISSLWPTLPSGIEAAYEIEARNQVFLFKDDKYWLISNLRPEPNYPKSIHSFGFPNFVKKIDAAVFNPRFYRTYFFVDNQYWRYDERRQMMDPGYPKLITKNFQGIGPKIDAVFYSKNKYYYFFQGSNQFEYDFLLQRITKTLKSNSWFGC
Series [3] deals with 72 kDa type IV collagenase (Homo sapiens, UniProt P08253). Kind of series: Inhibition of human recombinant MMP-2 ( Ile34 to Cys660 residues) using MOCAc-Pro-Leu-Gly-Leu-A2pr(Dnp)-Ala-Arg-NH2 as fluorogenic substrate preincubated for 15 mins followed by substrate addition by fluorescence based analysis.
Chain of 72 kDa type IV collagenase (P08253 whole entry): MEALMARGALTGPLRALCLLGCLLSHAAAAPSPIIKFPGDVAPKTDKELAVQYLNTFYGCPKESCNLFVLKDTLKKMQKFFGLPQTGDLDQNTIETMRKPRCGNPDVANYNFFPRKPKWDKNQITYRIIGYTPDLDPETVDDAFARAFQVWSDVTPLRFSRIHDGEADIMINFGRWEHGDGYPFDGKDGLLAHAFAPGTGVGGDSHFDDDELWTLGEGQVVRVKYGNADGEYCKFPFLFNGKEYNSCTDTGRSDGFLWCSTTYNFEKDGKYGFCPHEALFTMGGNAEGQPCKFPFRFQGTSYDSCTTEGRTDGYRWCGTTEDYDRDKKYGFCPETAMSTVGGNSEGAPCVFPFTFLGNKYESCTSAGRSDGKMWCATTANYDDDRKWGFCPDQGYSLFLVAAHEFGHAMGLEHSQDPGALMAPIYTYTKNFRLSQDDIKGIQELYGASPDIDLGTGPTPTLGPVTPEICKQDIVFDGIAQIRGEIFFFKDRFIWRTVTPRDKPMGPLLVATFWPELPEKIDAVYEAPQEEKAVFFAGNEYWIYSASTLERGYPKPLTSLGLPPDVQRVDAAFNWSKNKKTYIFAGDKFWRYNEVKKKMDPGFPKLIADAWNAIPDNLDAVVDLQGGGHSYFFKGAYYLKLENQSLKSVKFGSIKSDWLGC
In the next series the target is Neutrophil collagenase (Homo sapiens, UniProt P22894). Kind of series: Inhibition of human recombinant MMP-8 (Phe21 to Gly467 residues) using MOCAc-Pro-Leu-Gly-Leu-A2pr(Dnp)-Ala-Arg-NH2 as fluorogenic substrate preincubated for 15 mins followed by substrate addition by fluorescence based analysis.
Chain of Neutrophil collagenase (P22894 whole entry): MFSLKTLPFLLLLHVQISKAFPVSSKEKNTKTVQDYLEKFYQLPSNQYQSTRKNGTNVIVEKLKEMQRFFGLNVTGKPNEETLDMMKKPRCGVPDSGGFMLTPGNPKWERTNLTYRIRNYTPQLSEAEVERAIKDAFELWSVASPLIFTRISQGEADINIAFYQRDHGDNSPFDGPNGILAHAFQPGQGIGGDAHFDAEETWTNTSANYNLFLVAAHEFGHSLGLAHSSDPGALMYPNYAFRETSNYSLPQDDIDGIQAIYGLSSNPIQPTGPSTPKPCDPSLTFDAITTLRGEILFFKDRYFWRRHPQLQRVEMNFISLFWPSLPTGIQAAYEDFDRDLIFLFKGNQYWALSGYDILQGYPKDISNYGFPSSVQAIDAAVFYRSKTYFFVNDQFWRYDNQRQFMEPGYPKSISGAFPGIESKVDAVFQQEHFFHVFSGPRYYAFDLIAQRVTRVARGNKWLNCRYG
In the next series the target is Collagenase 3 (Homo sapiens, UniProt P45452). Kind of series: Inhibition of human recombinant MMP-13 (Leu20 to Cys471 residues) using MOCAc-Pro-Leu-Gly-Leu-A2pr(Dnp)-Ala-Arg-NH2 as fluorogenic substrate preincubated for 15 mins followed by substrate addition by fluorescence based analysis.
For the next series, the target named is Stromelysin-1 (Homo sapiens, UniProt P08254). Kind of series: Inhibition of human recombinant MMP-3 (Tyr18 to Cys477 residues ) using MOCAc-Arg-Pro-Lys-Pro-Val-Glu-Nva-Trp-Arg-Lys(Dnp)-NH2 as fluorogenic substrate preincubated for 15 mins followed by substrate addition by fluorescence based analysis.
Chain of Stromelysin-1 (P08254 whole entry): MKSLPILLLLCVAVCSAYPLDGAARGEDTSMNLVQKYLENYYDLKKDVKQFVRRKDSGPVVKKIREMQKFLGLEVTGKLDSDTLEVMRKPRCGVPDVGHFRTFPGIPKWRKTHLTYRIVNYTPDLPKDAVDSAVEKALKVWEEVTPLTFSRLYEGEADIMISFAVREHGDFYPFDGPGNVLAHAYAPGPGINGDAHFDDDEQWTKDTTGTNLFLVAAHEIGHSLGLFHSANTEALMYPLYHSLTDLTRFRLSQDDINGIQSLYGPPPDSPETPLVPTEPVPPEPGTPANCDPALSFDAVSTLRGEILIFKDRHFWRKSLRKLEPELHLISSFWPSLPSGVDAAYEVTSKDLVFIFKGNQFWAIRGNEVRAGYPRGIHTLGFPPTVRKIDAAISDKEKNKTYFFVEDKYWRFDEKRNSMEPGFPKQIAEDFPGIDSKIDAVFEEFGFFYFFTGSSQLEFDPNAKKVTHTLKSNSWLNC
The target in series [4] is Matrix metalloproteinase-9 (Homo sapiens, UniProt P14780). Kind of series: Inhibition of human recombinant MMP-9 (Ala20 to Asp707 residues) using MOCAc-Pro-Leu-Gly-Leu-A2pr(Dnp)-Ala-Arg-NH2 as fluorogenic substrate preincubated for 15 mins followed by substrate addition by fluorescence based analysis.
Chain of Matrix metalloproteinase-9 (P14780 whole entry): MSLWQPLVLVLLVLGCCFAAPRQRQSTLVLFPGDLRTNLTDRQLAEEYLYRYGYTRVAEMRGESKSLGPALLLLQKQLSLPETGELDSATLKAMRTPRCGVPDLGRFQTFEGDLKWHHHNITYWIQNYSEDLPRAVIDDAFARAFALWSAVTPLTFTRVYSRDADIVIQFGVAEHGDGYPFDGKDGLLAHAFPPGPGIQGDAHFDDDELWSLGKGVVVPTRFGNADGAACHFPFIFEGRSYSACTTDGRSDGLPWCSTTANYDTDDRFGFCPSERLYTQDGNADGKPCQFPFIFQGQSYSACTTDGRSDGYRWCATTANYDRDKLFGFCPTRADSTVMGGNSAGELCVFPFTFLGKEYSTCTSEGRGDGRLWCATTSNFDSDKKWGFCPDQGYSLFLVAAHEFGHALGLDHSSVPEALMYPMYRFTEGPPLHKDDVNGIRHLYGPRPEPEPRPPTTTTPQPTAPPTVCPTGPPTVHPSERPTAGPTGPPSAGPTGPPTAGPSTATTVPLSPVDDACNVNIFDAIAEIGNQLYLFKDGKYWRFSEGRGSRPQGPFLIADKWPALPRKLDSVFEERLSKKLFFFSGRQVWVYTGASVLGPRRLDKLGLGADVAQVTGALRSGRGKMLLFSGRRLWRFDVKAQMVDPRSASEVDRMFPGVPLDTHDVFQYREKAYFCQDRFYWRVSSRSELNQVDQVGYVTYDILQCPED
Another series deals with T2, Interstitial collagenase (Homo sapiens, UniProt P03956).
T2 sequence (P03956 whole entry): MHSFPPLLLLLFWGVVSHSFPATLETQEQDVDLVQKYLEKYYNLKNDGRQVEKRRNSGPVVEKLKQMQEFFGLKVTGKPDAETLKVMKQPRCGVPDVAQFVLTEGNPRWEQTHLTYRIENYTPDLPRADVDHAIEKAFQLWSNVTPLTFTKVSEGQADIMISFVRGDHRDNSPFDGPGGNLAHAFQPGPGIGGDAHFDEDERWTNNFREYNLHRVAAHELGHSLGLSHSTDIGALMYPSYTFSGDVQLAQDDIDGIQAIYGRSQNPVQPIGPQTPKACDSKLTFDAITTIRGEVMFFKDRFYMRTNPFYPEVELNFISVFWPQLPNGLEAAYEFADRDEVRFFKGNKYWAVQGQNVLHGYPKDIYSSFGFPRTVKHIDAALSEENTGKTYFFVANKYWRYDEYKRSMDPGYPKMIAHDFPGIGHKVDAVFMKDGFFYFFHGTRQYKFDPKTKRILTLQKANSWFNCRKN
Kind of series: Inhibition of human recombinant MMP-1 (Phe20 to Asn469 residue) using MOCAc-Lys-Pro-Leu-Gly-Leu-A2pr(Dnp)-Ala-Arg-NH2 as fluorogenic substrate preincubated for 15 mins followed by substrate addition by fluorescence based analysis.

The nature of series [5]: Stability in human liver microsomes at 1 uM incubated for 15 mins by liquid chromatography-mass spectrometry. The series is classed as ADME, Microsome. Particulars: 0.25 h.
Series [6] can be described thus: Stability in human serum incubated for 4 hrs by liquid chromatography-tandem mass spectrometry. It counts as ADME, cell-free.
The species named for series [7] is Homo sapiens. Kind of series: Selectivity index, ratio of IC50 for human recombinant MMP-12 to IC50 for human recombinant MMP-7.
The species entered for series [8] is Homo sapiens. Kind of series: Selectivity index, ratio of IC50 for human recombinant MMP-14 to IC50 for human recombinant MMP-7.

Molecules are shown by their SMILES. *1 amine or outer side, *2 acyl side, *3 side chain or, on linkers, in order; H or OH if unused. Where a SMILES comes first, the peptide text is derived from it. [ ]: non-standard residue; d: D form. The star is where a group is joined. Benzenesulfonyl(4-Cl,3-CF3) = O=S(=O)(c1ccc(Cl)c(C(F)(F)F)c1)*; γGlu = O=C(O)[C@H](CCC(=O)[*:2])N[*:1]; β3hP = O=C(O)C[C@@H]1CCCN1 Bounds are passed on as bounds.

As to `CC(C)C[C@H](NC(=O)CNC(=O)CC[C@H](NS(=O)(=O)c1ccc(Cl)c(C(F)(F)F)c1)C(=O)O)C(=O)N[C@H](C(N)=O)C(C)C`, the IC50 – broadly, the concentration needed to halve the response being measured – is 17 µM in series [1]; 0.056 µM on Matrilysin; 28 µM in series [2]; 45 µM in series [3]; > 100 µM on Neutrophil collagenase; > 100 µM at Collagenase 3. Besides, the IC50 (at Stromelysin-1; in [4]; on Interstitial collagenase) was > 100 µM throughout.
Regarding `CSCC[C@H](NC(=O)[C@H](CC(C)C)NC(=O)[C@H](C)NC(=O)C[C@H](NS(=O)(=O)c1ccc(Cl)c(C(F)(F)F)c1)C(=O)O)C(N)=O`, the concentration for half-maximal inhibition (IC50) at Matrilysin came out at 4.7 µM.
Same read-out and setting: the value for `CSCC[C@H](NC(=O)[C@H](CC(C)C)NC(=O)[C@H](CC(N)=O)NC(=O)CC[C@H](NS(=O)(=O)c1ccc(Cl)c(C(F)(F)F)c1)C(=O)O)C(N)=O` was 7.5 µM.
Same read-out and setting: the value for `CC(C)C[C@H](NC(=O)[C@H](C)NC(=O)CC[C@H](NS(=O)(=O)c1ccc(Cl)c(C(F)(F)F)c1)C(=O)O)C(=O)N[C@@H](C)C(N)=O` was 1.7 µM.
In the case of `CSCC[C@H](NC(=O)[C@H](CC(C)C)NC(=O)[C@H](C)NC(=O)CC[C@H](NS(=O)(=O)c1ccc(Cl)c(C(F)(F)F)c1)C(=O)O)C(N)=O`, the IC50 is > 100 µM in series [1]; 0.44 µM on Matrilysin; 40 µM in [2]; > 100 µM in [3]; > 100 µM at Neutrophil collagenase; > 100 µM at Collagenase 3. Besides, the IC50 (at Stromelysin-1; in series [4]) was > 100 µM in each case.
Regarding `O=C(O)[C@H](CCc1ccccc1)NS(=O)(=O)c1ccc(Cl)c(C(F)(F)F)c1`, the concentration for half-maximal inhibition (IC50) in series [1] was > 100 µM; on Matrilysin it was 6.1 µM; in [2], > 100 µM; in series [3] it was > 100 µM; on Neutrophil collagenase it was > 100 µM; at Collagenase 3, > 100 µM. The IC50 (at Stromelysin-1; in series [4]; at Interstitial collagenase) was > 100 µM in each case.
With `CSCC[C@H](NC(=O)[C@H](CC(C)C)NC(=O)CNC(=O)CC[C@H](NS(=O)(=O)c1ccc(Cl)c(C(F)(F)F)c1)C(=O)O)C(N)=O`, the IC50 in series [1] is 25 µM; at Matrilysin it was 0.12 µM; in series [2], 20 µM; in series [3], 73 µM; at Neutrophil collagenase, > 100 µM; at Collagenase 3 it was > 100 µM. For the same compound, the IC50 (on Stromelysin-1; in series [4]) was > 100 µM throughout.
As to `CSCC[C@H](NC(=O)[C@H](Cc1ccccc1)NC(=O)CNC(=O)CC[C@H](NS(=O)(=O)c1ccc(Cl)c(C(F)(F)F)c1)C(=O)O)C(N)=O`, the IC50 at Matrilysin worked out at 0.11 µM.
On to `CSCC[C@H](NC(=O)[C@H](C)NC(=O)[C@H](C)NC(=O)CC[C@H](NS(=O)(=O)c1ccc(Cl)c(C(F)(F)F)c1)C(=O)O)C(N)=O`, for which, at Matrilysin, the IC50 was 6.7 µM.
`CC(C)C[C@H](NC(=O)CNC(=O)CC[C@H](NS(=O)(=O)c1ccc(Cl)c(C(F)(F)F)c1)C(=O)O)C(=O)N[C@H](C(=O)N[C@@H](C)C(N)=O)C(C)C` ({Benzenesulfonyl(4-Cl,3-CF3)-γGlu}-GLVA-NH2): the Stability result in series [5] and in [6] was “Stable” in each case. The half-maximal inhibitory concentration (IC50) in series [1] is 11 µM; on Matrilysin, 0.016 µM; in series [2] it was 12 µM; in series [3], 33 µM; at Neutrophil collagenase, > 100 µM; at Collagenase 3, > 100 µM. Moreover, the IC50 (on Stromelysin-1; in series [4]; at Interstitial collagenase) was > 100 µM each time.
`CC(C)C[C@H](NC(=O)CNC(=O)CC[C@H](NS(=O)(=O)c1ccc(Cl)c(C(F)(F)F)c1)C(=O)O)C(=O)N[C@H](C(=O)N1CCC[C@H]1CC(N)=O)C(C)C` ({Benzenesulfonyl(4-Cl,3-CF3)-γGlu}-GLV[β3hP]-NH2): the Stability result in series [5] and in [6] was “Stable” each time. Moreover, the 50% inhibitory concentration (IC50) in series [1] is 0.45 µM; on Matrilysin it was 0.01 µM; in series [2], 2.9 µM; in series [3], 11 µM; on Neutrophil collagenase it was 59 µM; on Collagenase 3, > 100 µM. Besides, the IC50 (at Stromelysin-1; in [4]) was > 100 µM each time. In addition, the Ratio IC50 in the series filed under Homo sapiens [7] is 290; in the series filed under Homo sapiens [8], 45.
For the compound `CSCC[C@H](NC(=O)[C@H](CC(C)C)NC(=O)[C@H](CO)NC(=O)CC[C@H](NS(=O)(=O)c1ccc(Cl)c(C(F)(F)F)c1)C(=O)O)C(N)=O`, the IC50 at Matrilysin was determined as 5.7 µM.
Still for that read-out and setting: the value for `CSCC[C@H](NC(=O)[C@H](CC(C)C)NC(=O)[C@H](CC(C)C)NC(=O)CC[C@H](NS(=O)(=O)c1ccc(Cl)c(C(F)(F)F)c1)C(=O)O)C(N)=O` was 0.78 µM; that for `CSCC[C@H](NC(=O)[C@H](CC(C)C)NC(=O)[C@H](CCC(N)=O)NC(=O)CC[C@H](NS(=O)(=O)c1ccc(Cl)c(C(F)(F)F)c1)C(=O)O)C(N)=O` was 1.3 µM; that for `CC(C)C[C@H](NC(=O)CNC(=O)CC[C@H](NS(=O)(=O)c1ccc(Cl)c(C(F)(F)F)c1)C(=O)O)C(=O)N[C@H](C(=O)N1CCC[C@H]1C(N)=O)C(C)C` ({Benzenesulfonyl(4-Cl,3-CF3)-γGlu}-GLVP-NH2) was 0.019 µM.
